Measured values: ChEMBL document CHEMBL1137581, “Synthesis of 1-deoxy-1-hydroxymethyl- and 1-deoxy-1-epi-hydroxymethyl castanospermine as new potential immunomodulating agents” (2007)
Active and inactive are the calls of the source. The rule behind the calls is not given here.

Legend:
Splenocyte = test: (§1) Enhancement of ConA-induced proliferation in Swiss Albino mouse splenocyte at 75 uM after 72 hrs by MTT assay relative to control; assay type: functional
[1] = Reduction of ConA-induced IL4 secretion in Swiss Albino mouse splenocytes by ELISA relative to control; assay type: functional, Splenocyte; set-up: scale not given: the % may be the effect or the level left
[2] = Enhancement of ConA-induced proliferation in Swiss Albino mouse splenocyte at 5 uM after 72 hrs by MTT assay relative to control; assay type: functional
[3] = target: T1, Alpha-galactosidase A (Homo sapiens) (UniProt P06280); test: Inhibition of human alpha galactosidase
T1 sequence (whole entry): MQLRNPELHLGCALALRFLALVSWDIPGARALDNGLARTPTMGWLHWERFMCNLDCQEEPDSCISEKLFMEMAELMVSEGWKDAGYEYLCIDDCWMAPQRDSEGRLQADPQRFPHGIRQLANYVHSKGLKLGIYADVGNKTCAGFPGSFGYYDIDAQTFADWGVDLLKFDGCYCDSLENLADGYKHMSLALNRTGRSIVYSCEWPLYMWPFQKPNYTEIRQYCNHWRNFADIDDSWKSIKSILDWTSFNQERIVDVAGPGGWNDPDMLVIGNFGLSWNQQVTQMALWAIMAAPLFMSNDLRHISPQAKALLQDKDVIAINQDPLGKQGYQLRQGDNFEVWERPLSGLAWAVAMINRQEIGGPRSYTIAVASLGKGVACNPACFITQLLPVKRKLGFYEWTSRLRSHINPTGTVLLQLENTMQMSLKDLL

[4] = Enhancement of ConA-induced proliferation in Swiss Albino mouse splenocyte at 20 uM after 72 hrs by MTT assay relative to control; assay type: functional
[5] = Enhancement of ConA-induced IFN-gamma secretion in Swiss Albino mouse splenocytes by ELISA relative to control; assay type: functional, Splenocyte
[6] = Enhancement of ConA-induced proliferation in Swiss Albino mouse splenocyte at 100 uM after 72 hrs by MTT assay relative to control; assay type: functional
Homo sapiens [7] = organism: Homo sapiens; test: Inhibition of human beta galactosidase
[8] = Enhancement of ConA-induced IL6 secretion in Swiss Albino mouse splenocytes by ELISA relative to control; assay type: functional, Splenocyte
[9] = target: Mannosyl-oligosaccharide 1,2-alpha-mannosidase IA (Homo sapiens) (UniProt P33908); test: Inhibition of human alpha mannosidase
Sequence of Mannosyl-oligosaccharide 1,2-alpha-mannosidase IA (Homo sapiens) (P33908 whole entry): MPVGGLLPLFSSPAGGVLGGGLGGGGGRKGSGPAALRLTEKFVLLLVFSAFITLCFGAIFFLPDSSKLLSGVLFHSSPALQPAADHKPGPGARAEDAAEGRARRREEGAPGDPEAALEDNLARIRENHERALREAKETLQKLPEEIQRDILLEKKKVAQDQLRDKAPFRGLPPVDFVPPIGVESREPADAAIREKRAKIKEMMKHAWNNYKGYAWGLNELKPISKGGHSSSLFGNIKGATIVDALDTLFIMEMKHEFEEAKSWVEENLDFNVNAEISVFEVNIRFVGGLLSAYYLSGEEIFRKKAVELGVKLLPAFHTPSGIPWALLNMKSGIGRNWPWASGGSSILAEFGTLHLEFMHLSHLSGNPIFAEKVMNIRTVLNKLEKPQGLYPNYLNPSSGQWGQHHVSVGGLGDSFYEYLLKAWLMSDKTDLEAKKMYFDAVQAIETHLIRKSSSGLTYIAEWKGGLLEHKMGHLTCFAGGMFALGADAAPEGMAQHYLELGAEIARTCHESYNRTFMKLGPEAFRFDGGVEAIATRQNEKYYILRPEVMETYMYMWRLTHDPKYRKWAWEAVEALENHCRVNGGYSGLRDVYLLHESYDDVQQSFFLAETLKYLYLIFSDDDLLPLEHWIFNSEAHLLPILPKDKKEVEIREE

[10] = Enhancement of ConA-induced IL2 secretion in Swiss Albino mouse splenocytes by ELISA relative to control; assay type: functional, Splenocyte
[11] = Enhancement of ConA-induced proliferation in Swiss Albino mouse splenocyte at 10 uM after 72 hrs by MTT assay relative to control; assay type: functional
Homo sapiens [12] = organism: Homo sapiens; test: Inhibition of human beta glucosidase
[13] = target: T2, Neutral alpha-glucosidase AB (Homo sapiens) (UniProt Q14697); test: Inhibition of human alpha glucosidase
T2 sequence (whole entry): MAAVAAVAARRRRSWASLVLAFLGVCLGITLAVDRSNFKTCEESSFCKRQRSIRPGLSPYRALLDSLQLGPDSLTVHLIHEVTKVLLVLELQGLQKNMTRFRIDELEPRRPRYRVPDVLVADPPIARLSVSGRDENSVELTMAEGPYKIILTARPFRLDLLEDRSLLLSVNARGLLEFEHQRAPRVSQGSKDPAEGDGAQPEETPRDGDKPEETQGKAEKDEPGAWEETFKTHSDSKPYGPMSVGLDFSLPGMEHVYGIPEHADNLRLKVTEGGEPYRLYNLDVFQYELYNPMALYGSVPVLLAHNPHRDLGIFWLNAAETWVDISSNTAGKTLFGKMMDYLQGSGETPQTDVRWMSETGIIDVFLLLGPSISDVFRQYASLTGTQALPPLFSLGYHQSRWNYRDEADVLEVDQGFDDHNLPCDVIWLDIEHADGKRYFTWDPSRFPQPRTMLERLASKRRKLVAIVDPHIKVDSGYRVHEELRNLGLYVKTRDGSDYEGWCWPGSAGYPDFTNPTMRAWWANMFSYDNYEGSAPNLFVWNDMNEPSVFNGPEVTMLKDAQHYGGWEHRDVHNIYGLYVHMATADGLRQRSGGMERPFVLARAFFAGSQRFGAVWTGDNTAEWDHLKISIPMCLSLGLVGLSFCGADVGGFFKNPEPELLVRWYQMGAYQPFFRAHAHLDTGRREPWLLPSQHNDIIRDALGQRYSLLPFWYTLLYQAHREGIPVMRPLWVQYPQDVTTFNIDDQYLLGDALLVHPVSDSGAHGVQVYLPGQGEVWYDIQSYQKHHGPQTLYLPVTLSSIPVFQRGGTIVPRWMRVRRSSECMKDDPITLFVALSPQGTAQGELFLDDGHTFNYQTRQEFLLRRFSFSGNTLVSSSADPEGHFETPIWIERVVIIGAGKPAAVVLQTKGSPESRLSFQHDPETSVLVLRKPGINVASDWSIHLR

[14] = as §1; assay type: functional

In the case of `OC[C@H]1CCN2C[C@H](O)[C@@H](O)[C@H](O)[C@@H]12`, the Activity (Splenocyte) was “inactive”, the Activity [1] was 20.6% and the Activity [2] was 161%. The Activity [3] was “inactive”, the Activity [4] was 40% and the Activity [5] was 40.5%. For the same compound, the Activity [6] was 27%, the Activity (Homo sapiens [7]) was “inactive” and the Ratio [8] was greater than 5.5. The Activity [9] was “inactive”, the Activity [10] was 6.6% and the Activity [11] was 109%. The Activity (Homo sapiens [12]) was “inactive” and the Activity [13] was “inactive”.

Work on `OC[C@@H]1CCN2C[C@H](O)[C@@H](O)[C@H](O)[C@@H]12` yielded an Activity [14] of 41%, an Activity [1] of 47% and an Activity [2] of 19%. The Activity [3] was “inactive”, the Activity [4] was 69% and the Activity [5] was 9.5%. The Activity [6] was 31%, the Activity (Homo sapiens [7]) was “inactive” and the Ratio [8] was greater than 9. The Activity [9] was “inactive”, the Activity [10] was 3.3% and the Activity [11] was 61%. For the same compound, the Activity (Homo sapiens [12]) was “inactive” and the Activity [13] was “inactive”.
